Like-named read-outs stand apart in the source and are kept apart here.
Assays:
[1] = cited from earlier work
[2] = Particle size distribution, Malvern Mastersizer 3000 laser particle size analyzer; assay type: physicochemical; settings: aqueous dispersing medium
Description: Submicron sized metaxalone drug particles were prepared by dry milling metaxalone drug substance (40%) together with lactose monohydrate and sodium lauryl sulfate in an attritor mill containing stainless steel grinding media. The total batch size was approximately 1 kg. Milled powder was discharged out the bottom of the mill and collected for analysis and further processing. […] Table 1, below, includes size data for the milled and unmilled metaxalone.

For `Cc1cc(C)cc(OCC2CNC(=O)O2)c1` (stereo not shown) [Metaxalone], the solubility ([1]; 96% ethanol) is listed as “soluble”, the solubility ([1]; chloroform) is listed as “freely soluble” and the solubility ([1]; ether) is listed as “practically insoluble”. For the same compound, the solubility ([1]; methanol) was “soluble”, the solubility ([1]; water) was “practically insoluble” and the “D[4, 3]” value [2] was 47.3 μm. For the same compound, the Dv10 [2] was 16.0 μm, the Dv50 [2] was 43.3 μm and the Dv90 [2] was 81.8 μm. For the same compound, the “Specific Surface Area” value [2] was 199.7 m^2/kg.
